This assay deals with T1, human vasopressin V1b receptor (Homo sapiens, UniProt P47901).
T1 construct: expressed in transfected cells; host or cells: CHO-K1 (cell line hV1b_3H2_CHO), membrane preparation
T1 sequence (P47901 1-424): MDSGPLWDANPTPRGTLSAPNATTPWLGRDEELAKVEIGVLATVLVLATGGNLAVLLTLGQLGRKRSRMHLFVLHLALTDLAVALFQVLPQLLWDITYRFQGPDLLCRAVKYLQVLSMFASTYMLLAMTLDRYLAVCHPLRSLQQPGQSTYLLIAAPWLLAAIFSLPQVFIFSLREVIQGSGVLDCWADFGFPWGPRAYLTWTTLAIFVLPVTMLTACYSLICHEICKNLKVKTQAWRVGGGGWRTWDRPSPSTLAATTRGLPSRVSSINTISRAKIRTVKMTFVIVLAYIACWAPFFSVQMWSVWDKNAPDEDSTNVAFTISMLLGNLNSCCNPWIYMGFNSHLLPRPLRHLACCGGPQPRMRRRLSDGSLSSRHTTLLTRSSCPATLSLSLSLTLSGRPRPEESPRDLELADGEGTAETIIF
In words: Vasopressin V1b receptor binding test. To be noted: membranes of CHO-K1 cells, displacement of 1.5 nM 3H-AVP. On the procedure:
• Vasopressin V1b Receptor Binding Test: • Substances:
The test substances were dissolved at a concentration of 10^−2 M in DMSO and diluted further in DMSO to 5×10^−4 M to 5×10^−9 M. These DMSO solutions were diluted 1:10 with test buffer. The concentration of substance was again diluted 1:5 in the test preparation.
The membrane pellet was homogenized and centrifuged again as described, and then taken up in 50 mM Tris-HCl, pH 7.4, homogenized and, frozen in aliquots, stored at −190° C. in liquid nitrogen.
The incubation buffer was: 50 mM Tris, 10 mM MgCl2, 0.1% BSA, pH 7.4. […] The nonspecific binding was determined with 1 μM AVP (Bachem #H1780). All determinations were performed in triplicate. After incubation (60 minutes at room temperature), the free radioligand was filtered off by vacuum filtration (Skatron cell harvester 7000) on Whatman GF/B glass-fibre filter mats and the filters were transferred to scintillation vessels. Liquid scintillation measurement was performed in a Tricarb instrument, Model 2000 or 2200CA (Packard). Conversion of the measured cpm to dpm was performed with the aid of a standard quench series.
The binding parameters were calculated by nonlinear regression in SAS.
For the compounds according to the invention, the affinities for the human vasopressin receptor V1b were measured according to the above test and the affinity constant (Ki) was determined.
For `CCOc1ccccc1C1(N2CCN(c3ccncc3)CC2)C(=O)N(S(=O)(=O)c2ccc([N+](=O)[O-])cc2OC)c2ccc(C#N)cc21` (racemic) [Example 91, (±)-5-Cyano-3-(2-ethoxyphenyl)-1-(2-methoxy-4-nitro-benzenesulphonyl)-3-(4-pyridin-4-yl-piperazin-1-yl)-2,3-dihydro-1H-indol-2-one], the Ki (in general, the dissociation constant of the complex between target and ligand, obtained from inhibition or displacement) was 50 to 500 nM.
Turning to `CCOc1ccc(OC)cc1C1(N2CC3CN(c4ccncc4)CC3C2)C(=O)N(S(=O)(=O)c2ccc(OC)cc2OC)c2ccc(C#N)cc21` (stereo not shown) [Example 58, 5-Cyano-1-(2,4-dimethoxy-benzenesulphonyl)-3-(2-ethoxy-5-methoxyphenyl)-3-(5-pyridin-4-yl-hexahydro-pyrrolo[3,4-c]pyrrol-2-yl)-2,3-dihydro-1H-indol-2-one], the inhibition constant Ki was below 50 nM.
The molecule `CCOc1ccccc1C1(N2CCN(c3ccncc3)CC2)C(=O)N(S(=O)(=O)c2ccc(C#N)cc2F)c2ccc(C#N)cc21` (racemic) [Example 68, (±)-5-Cyano-1-(4-cyano-2-fluoro-benzenesulphonyl)-3-(2-ethoxyphenyl)-3-(4-pyridin-4-yl-piperazin-1-yl)-2,3-dihydro-1H-indol-2-one] yielded a Ki of 50 to 500 nM.
The molecule `COc1ccc(S(=O)(=O)N2C(=O)C(c3ccccc3Cl)(N3CCN(c4ccncc4)CC3)c3cc(Cl)ccc32)c(OC)c1` (stereo not shown) [Example 24, 5-Chloro-3-(2-chloro-phenyl)-1-(2,4-dimethoxy-benzenesulphonyl)-3-(4-pyridin-4-yl-piperazin-1-yl)-1,3-dihydro-indol-2-one] returned a Ki below 50 nM.
For `CCOc1ccccc1C1(N2CCN(c3ccncc3)CC2)C(=O)N(S(=O)(=O)c2ccc(NC(C)=O)cc2)c2ccc(C#N)cc21` (stereo not shown) [Example 46, N-{4-[5-Cyano-3-(2-ethoxyphenyl)-2-oxo-3-(4-pyridin-4-yl-piperazin-1-yl)-2,3-dihydro-indole-1-sulphonyl]-phenyl}-acetamide] the value was 50 to 500 nM; for `CCOc1ccccc1C1(N2CCN(c3ccncc3)CC2)C(=O)N(S(=O)(=O)c2cccc(N)c2)c2ccc(C#N)cc21` (stereo not shown) [Example 48, 5-Cyano-1-(3-amino-benzenesulphonyl)-3-(2-ethoxyphenyl)-3-(4-pyridin-4-yl-piperazin-1-yl)-2,3-dihydro-1H-indol-2-one], 50 to 500 nM.
Regarding `CCOc1ccccc1C1(N2CCN(c3ccncc3)CC2)C(=O)N(S(=O)(=O)c2ccc(S(C)(=O)=O)cc2)c2ccc(C#N)cc21` (racemic) [Example 86, (±)-5-Cyano-3-(2-ethoxyphenyl)-1-(4-methanesulphonyl-benzenesulphonyl)-3-(4-pyridin-4-yl-piperazin-1-yl)-2,3-dihydro-1H-indol-2-one], the Ki was 50 to 500 nM.
On to `COc1ccc(S(=O)(=O)N2C(=O)C(c3ccccc3OC)(N3C[C@H]4C[C@@H]3CN4c3ccncc3)c3cc(Cl)ccc32)c(OC)c1` (stereo partly drawn) [Example 27, 5-Chloro-1-(2,4-dimethoxy-benzenesulphonyl)-3-(2-methoxyphenyl)-3-((1R,4R)-5-pyridin-4-yl-2,5-diaza-bicyclo[2.2.1]hept-2-yl)-1,3-dihydro-indol-2-one], for which the Ki lay in the range of 50 to 500 nM.
`CCOc1ccc(S(=O)(=O)N2C(=O)C(c3ccccc3OCC)(N3CCN(c4ccncc4)CC3)c3cc(C#N)ccc32)cc1` (racemic) [Example 89, (±)-5-Cyano-1-(4-ethoxy-benzenesulphonyl)-3-(2-ethoxyphenyl)-3-(4-pyridin-4-yl-piperazin-1-yl)-2,3-dihydro-1H-indol-2-one] had a Ki of 50 to 500 nM.
For the molecule `COc1ccc(S(=O)(=O)N2C(=O)C(c3ccccc3OC)(N3CCN(c4ccncc4)CC3)c3cc(Cl)ccc32)cc1` (stereo not shown) [Example 20, 5-Chloro-1-(4-methoxy-benzenesulphonyl)-3-(2-methoxyphenyl)-3-(4-pyridin-4-yl-piperazin-1-yl)-1,3-dihydro-indol-2-one], the inhibitory constant (Ki) lay in the range of 50 to 500 nM.

These data come from patent US8431567B2 (Abbott GmbH & Co. KG, priority 2006, dated 2013).
